Reference: patent publication US20200247800A1, “SUBSTITUTED BICYCLIC HETEROCYCLIC COMPOUNDS AS NADPH OXIDASE INHIBITORS” (Glenmark Pharmaceuticals S.A., priority 2017, published 2020)

Target: T1, human NOX4 (Homo sapiens, UniProt Q9NPH5)
T1 construct: expressed in transfected cells; membrane fraction used
T1 sequence (Q9NPH5 1-578): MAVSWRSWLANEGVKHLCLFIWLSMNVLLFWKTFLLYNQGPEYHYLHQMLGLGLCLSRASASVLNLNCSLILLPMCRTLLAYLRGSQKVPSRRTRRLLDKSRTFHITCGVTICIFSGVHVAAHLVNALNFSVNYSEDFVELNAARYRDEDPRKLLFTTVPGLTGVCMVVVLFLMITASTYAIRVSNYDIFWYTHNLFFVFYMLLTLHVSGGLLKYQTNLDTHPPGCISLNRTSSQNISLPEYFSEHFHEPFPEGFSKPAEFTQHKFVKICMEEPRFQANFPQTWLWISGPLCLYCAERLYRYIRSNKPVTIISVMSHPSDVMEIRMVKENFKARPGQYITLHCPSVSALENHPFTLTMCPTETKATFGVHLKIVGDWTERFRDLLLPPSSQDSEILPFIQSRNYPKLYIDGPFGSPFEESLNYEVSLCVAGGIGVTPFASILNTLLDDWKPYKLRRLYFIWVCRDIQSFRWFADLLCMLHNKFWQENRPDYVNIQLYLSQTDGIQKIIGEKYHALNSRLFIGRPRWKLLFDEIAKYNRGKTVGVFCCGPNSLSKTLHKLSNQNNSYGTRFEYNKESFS
T1 sequence (P13498 1-195 partner): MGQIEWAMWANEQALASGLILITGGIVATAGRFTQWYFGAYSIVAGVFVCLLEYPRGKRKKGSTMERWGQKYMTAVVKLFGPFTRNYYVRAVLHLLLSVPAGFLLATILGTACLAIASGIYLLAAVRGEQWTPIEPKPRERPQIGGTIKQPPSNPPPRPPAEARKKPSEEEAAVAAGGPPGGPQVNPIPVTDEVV
Assay: Cell free membrane based in vitro NOX4 assay: H2O2 production by membranes expressing human NOX4, measured with Amplex Red
Assay type: biochemical
Details: for inhibition at 1 µM: 1.0 μM compound, read-out: Percentage inhibition at 1.0 μM; for inhibition at 10 µM: 10.0 μM compound, read-out: Percentage inhibition at 10.0 μM; for IC50: class symbols
Summary of the method: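 Membranes from HEK cells stably overexpressing human NOX4 were preincubated 20 min with inhibitor in pH 7.4 HEPES buffer containing HRP and Amplex Red, then NADPH was added. H2O2 was followed for 10 min by fluorescence (ex 544/em 590 nm). IC50 from nonlinear regression of % maximal uninhibited response.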

| inhibition at 1 µM | inhibition at 10 µM | IC50 | SMILES |
| --- | --- | --- | --- |
| 66.7% | 84.8% | > 150 nM | CCn1nc(C(F)(F)F)c2c(=O)c(O)c(-c3c(F)cccc3F)[nH]c21 [Example 100, 6-(2,6-Difluorophenyl)-1-ethyl-5-hydroxy-3-(trifluoromethyl)-1H-pyrazolo[3,4-b]pyridin-4(7H)-one] |
| 69.7% | 88.6% | > 150 nM | CCn1cnc2c(=O)c(O)c(-c3c(F)cccc3F)[nH]c21 [Example 101, 5-(2,6-Difluorophenyl)-3-ethyl-6-hydroxy-3H-imidazo[4,5-b]pyridin-7(4H)-one] |
| 86.2% | 91.5% | 50 to 100 nM | COCc1nn(C)c2[nH]c(-c3c(F)cccc3F)c(O)c(=O)c12 [Example 102, 6-(2,6-Difluorophenyl)-5-hydroxy-3-(methoxymethyl)-1-methyl-1H-pyrazolo[3,4-b]pyridin-4(7H)-one] |
| 99.4% | 100% | < 50 nM | CCc1nn(CC)c2[nH]c(-c3c(F)cccc3F)c(O)c(=O)c12 [Example 103, 6-(2,6-Difluorophenyl)-1,3-diethyl-5-hydroxy-1,7-dihydro-4H-pyrazolo[3,4-b]pyridin-4-one] |
| 99.8% | 96.9% | 100 to 150 nM | CCn1nc(C)c2c(=O)c(O)c(-c3cccc(C(F)(F)F)c3F)[nH]c21 [Example 104, 1-Ethyl-6-[2-fluoro-3-(trifluoromethyl)phenyl]-5-hydroxy-3-methyl-1,7-dihydro-4H-pyrazolo[3,4-b]pyridin-4-one] |
| 99.1% | 100% | > 150 nM | CCn1ncc2c(=O)c(O)c(-c3c(F)cccc3F)[nH]c21 [Example 105, 6-(2,6-Difluorophenyl)-1-ethyl-5-hydroxy-1,7-dihydro-4H-pyrazolo[3,4-b]pyridin-4-one] |
| 100% | 100% | 50 to 100 nM | Cc1n[nH]c2[nH]c(-c3c(F)cccc3F)c(O)c(=O)c12 [Example 106, 6-(2,6-Difluorophenyl)-5-hydroxy-3-methyl-1,7-dihydro-4H-pyrazolo[3,4-b]pyridin-4-one] |
| 70.8% | 61.2% | > 150 nM | CCn1nc(C)c2c(=O)c(O)c(-c3ccccc3F)[nH]c21 [Example 107, 1-Ethyl-6-(2-fluorophenyl)-5-hydroxy-3-methyl-1,7-dihydro-4H-pyrazolo[3,4-b]pyridin-4-one] |
| 70.7% | 77.9% | 50 to 100 nM | Cc1nn(CC(C)C)c2[nH]c(-c3c(F)cccc3F)c(O)c(=O)c12 [Example 108, 6-(2,6-Difluorophenyl)-5-hydroxy-1-isobutyl-3-methyl-1H-pyrazolo[3,4-b]pyridin-4(7H)-one] |
| 60.5% | 82.1% | > 150 nM | CCn1nc(C(F)(F)F)c2c(=O)c(O)c(-c3ccccc3Cl)[nH]c21 [Example 109, 6-(2-Chlorophenyl)-1-ethyl-5-hydroxy-3-(trifluoromethyl)-1H-pyrazolo[3,4-b]pyridin-4(7H)-one] |
| 60.5% | 63% | > 150 nM | CCn1nc(C)c2c(=O)c(O)c(-c3ccccc3OC)[nH]c21 [Example 110, 1-Ethyl-5-hydroxy-6-(2-methoxyphenyl)-3-methyl-1H-pyrazolo[3,4-b]pyridin-4(7H)-one] |
| 56.4% | 81.7% | > 150 nM | CC(C)Cn1nc(C(F)(F)F)c2c(=O)c(O)c(-c3c(F)cccc3F)[nH]c21 [Example 111, 6-(2,6-Difluorophenyl)-5-hydroxy-1-isobutyl-3-(trifluoromethyl)-1H-pyrazolo[3,4-b]pyridin-4(7H)-one] |
| 44.1% | – | – | CCn1nc(C)c2c(=O)c(O)c(-c3ccc(F)cc3)[nH]c21 [Example 112, 1-Ethyl-6-(4-fluorophenyl)-5-hydroxy-3-methyl-1,7-dihydro-4H-pyrazolo[3,4-b]pyridin-4-one] |
| 91.3% | 92.3% | 50 to 100 nM | Cn1nc(-c2ccc(F)cc2)c2c(=O)c(O)c(-c3c(F)cccc3F)[nH]c21 [Example 113, 6-(2,6-Difluorophenyl)-3-(4-fluorophenyl)-5-hydroxy-1-methyl-1H-pyrazolo[3,4-b]pyridin-4(7H)-one] |
| 61% | 69.9% | > 150 nM | COc1ccc(-c2[nH]c3c(c(C)nn3C3CC3)c(=O)c2O)c(F)c1 [Example 114, 1-Cyclopropyl-6-(2-fluoro-4-methoxyphenyl)-5-hydroxy-3-methyl-1H-pyrazolo[3,4-b]pyridin-4(7H)-one] |
| 76.7% | 80.8% | 100 to 150 nM | Cn1nc(Cc2ccccc2)c2c(=O)c(O)c(-c3c(F)cccc3F)[nH]c21 [Example 115, 3-Benzyl-6-(2,6-difluorophenyl)-5-hydroxy-1-methyl-1H-pyrazolo[3,4-b]pyridin-4(7H)-one] |
| 78.6% | 73% | > 150 nM | CCn1nc(C)c2c(=O)c(O)c(-c3ccc(F)c(C(F)(F)F)c3F)[nH]c21 [Example 116, 6-(2,4-Difluoro-3-(trifluoromethyl)phenyl)-1-ethyl-5-hydroxy-3-methyl-1H-pyrazolo[3,4-b]pyridin-4(7H)-one] |
| 6.79% | 15.6% | – | Cn1nc(N2CCOCC2)c2c(=O)c(O)c(-c3c(F)cccc3F)[nH]c21 [Example 117, 6-(2,6-Difluorophenyl)-5-hydroxy-1-methyl-3-morpholino-1H-pyrazolo[3,4-b]pyridin-4(7H)-one] |
| 78.8% | 77.5% | 50 to 100 nM | CCn1nc(C)c2c(=O)c(O)c(-c3c(F)cc(OC)cc3F)[nH]c21 [Example 118, 6-(2,6-Difluoro-4-methoxyphenyl)-1-ethyl-5-hydroxy-3-methyl-1H-pyrazolo[3,4-b]pyridin-4(7H)-one] |
| 66.9% | – | > 150 nM | CCn1nc(C)c2c(=O)c(O)c(-c3ccc(N)cc3F)[nH]c21 [Example 119, 6-(4-Amino-2-fluorophenyl)-1-ethyl-5-hydroxy-3-methyl-1,7-dihydro-4H-pyrazolo[3,4-b]pyridin-4-one] |
| 64.8% | – | > 150 nM | CCn1nc(C)c2c(=O)c(O)c(-c3ccc(OCCOC)cc3F)[nH]c21 [Example 120, 1-Ethyl-6-[2-fluoro-4-(2-methoxyethoxy)phenyl]-5-hydroxy-3-methyl-1,7-dihydro-4H-pyrazolo[3,4-b]pyridin-4-one] |
| 70.2% | – | > 150 nM | CCn1nc(C)c2c(=O)c(O)c(-c3ccc(OCC4CC4)cc3F)[nH]c21 [Example 121, 6-[4-(Cyclopropylmethoxy)-2-fluorophenyl]-1-ethyl-5-hydroxy-3-methyl-1,7-dihydro-4H-pyrazolo[3,4-b]pyridin-4-one] |
| 72.7% | 75.4% | > 150 nM | CCn1nc(CC(C)C)c2c(=O)c(O)c(-c3c(F)cccc3F)[nH]c21 [Example 122, 6-(2,6-Difluorophenyl)-1-ethyl-5-hydroxy-3-(2-methylpropyl)-1,7-dihydro-4H-pyrazolo[3,4-b]pyridin-4-one] |
